Measurements from publication PMC10066365, “Nemacol is a small molecule inhibitor of C. elegans vesicular acetylcholine transporter with anthelmintic potential” (Nature Communications, 2023).
Values joined by “and” are separate entries in the source; they are usually repeats but may differ in a detail not shown here. Equal values may be shown once. Read-outs that look alike come from different tables or passages of the source.

Tests used:
[1] = tested on: C. elegans; test: C. elegans motor phenotype scoring on solid media (Punc/jerky-unc, coiled, paralyzed), wild-type young adults; assay type: in vivo, Caenorhabditis elegans; details: for atypical locomotion (number of animals) / coiled (number of animals) / no phene (number of animals) / paralyzed (number of animals) / any phene: mean % fraction of young adults exhibiting any phenotype (coiled, jerky-Unc or paralyzed): one hour; for atypical locomotion (number of animals) / coiled (number of animals) / no phene (number of animals) / paralyzed (number of animals): young adults, 20 animals per trial, single technical replicate; for any phene: mean % fraction of young adults exhibiting any phenotype (coiled, jerky-Unc or paralyzed): mean of three biological replicates; for EC50: Caenorhabditis elegans, any motor phenotype after 1 h on solid media, ± 95% CI, read-out: C. elegans - motor disruption EC50
[2] = target: T1, rat VAChT (Rattus norvegicus, UniProt Q62666); test: [3H]Vesamicol competitive radioligand binding, PC12 cells expressing ratVAChT
T1 construct: expressed in transfected cells; host or cells: rat PC12 (PC12 A123.7) cells, stably transfected; shared by Dr. Ali Roghani (Texas Tech University)
T1 sequence (Q62666 1-530): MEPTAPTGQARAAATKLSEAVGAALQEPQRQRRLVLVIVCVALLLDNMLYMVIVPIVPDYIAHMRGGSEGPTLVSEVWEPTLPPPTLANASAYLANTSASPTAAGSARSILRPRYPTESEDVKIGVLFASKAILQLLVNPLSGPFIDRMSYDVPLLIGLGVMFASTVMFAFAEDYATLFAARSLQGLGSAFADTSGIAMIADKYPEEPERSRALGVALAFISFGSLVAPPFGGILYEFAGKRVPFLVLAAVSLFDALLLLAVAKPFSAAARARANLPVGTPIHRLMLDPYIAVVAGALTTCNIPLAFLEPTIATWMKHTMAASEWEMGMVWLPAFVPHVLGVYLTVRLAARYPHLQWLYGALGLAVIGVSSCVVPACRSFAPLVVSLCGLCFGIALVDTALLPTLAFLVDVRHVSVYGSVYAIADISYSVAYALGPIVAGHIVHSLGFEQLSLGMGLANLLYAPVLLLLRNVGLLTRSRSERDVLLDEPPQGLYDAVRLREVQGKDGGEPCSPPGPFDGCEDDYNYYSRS

[3] = tested on: Dirofilaria immitis L3/L4; test: Dirofilaria immitis L3/L4 motility assay (DiroImager, 72 h); details: Dirofilaria immitis L4
[4] = tested on: Dirofilaria immitis microfilariae; test: Dirofilaria immitis microfilariae immobility assay (DiroImager, 72 h); details: Dirofilaria immitis microfilariae
How it was run: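 About 250 freshly purified microfilariae of the Missouri isolate per well in supplemented RPMI 1640, exposed to compound for 72 h. Motility scored by automated whole-plate optical imaging; medium with 1% DMSO as negative control.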

[5] = tested on: Pristionchus pacificus; test: Pristionchus pacificus motor disruption dose-response on solid media, 1 h; details: for EC50: Pristionchus pacificus, 1 h, read-out: P. pacificus motor disruption EC50; for mean % any phene: any phenotype (coiled, jerky-Unc or paralyzed) at one hour, mean of three biological replicates; for rep 1 atypical locomotion / rep 1 coiled / rep 1 no phene / rep 1 paralyzed / rep 2 atypical locomotion / rep 2 coiled / rep 2 no phene / rep 2 paralyzed / rep 3 atypical locomotion / rep 3 coiled / rep 3 no phene / rep 3 paralyzed: count of 20 animals per trial, one hour
Procedure: Locomotor phenotype analyses were done in 24-well plates with 1 mL of MYOB substrate (27.5 g Trizma HCl, 12 g Trizma Base, 230 g bacto tryptone, 10 g NaCl, 0.4 g cholesterol (95%)) seeded with 25 µL of OP50 Escherichia coli on each well. Each compound was added to the MYOB substrate before pouring to achieve the desired final concentrations of 30 µM or 60 µM after diffusion through the media. Synchronized young adult worms are transferred into each well using a platinum wire pick. A Leica MZ75 stereomicroscope was used to visualize the movement of worms on the solid substrate. The specific dominant locomotor phenotype (i.e. ‘Punc’, ‘paralyzed’, ‘coiler’ or ‘wild-type locomotion’) was scored after the touch on the head with a platinum wire over a ~3–5 s of observation. […] Coiled animals were not scored as paralyzed despite sometimes not responding to light touch.

[6] = [3H]Vesamicol binding, PC12, experiment 1, read-out: expt 1 Ki (M) vs. rat VAChT (PC12)
[7] = [3H]Vesamicol binding, PC12, experiment 2, read-out: expt 2 Ki (M) vs. rat VAChT (PC12)
[8] = [3H]Vesamicol binding, rat VAChT (PC12), mean of 2-3 experiments, read-out: mean Ki
[9] = [3H]Vesamicol displacement, mean, read-out: ratVAChT Ki

## c1ccc(N2CCN(C3CCCCCC3)CC2)cc1 [Nemacol-59]
[1]; 3.75uM
  atypical locomotion (number of animals): 5 and 4 and 7 and 2
  coiled (number of animals): 0
  no phene (number of animals): 15 and 16 and 13
  paralyzed (number of animals): 0 and 2
  any phene: mean % fraction of young adults exhibiting any phenotype (coiled, jerky-Unc or paralyzed): 24.1667%
[1]; 15uM
  atypical locomotion (number of animals): 15 and 17 and 14 and 16 and 18
  coiled (number of animals): 0 and 1 and 3 and 2
  no phene (number of animals): 0 and 2
  paralyzed (number of animals): 5 and 3 and 0
  any phene: mean % fraction of young adults exhibiting any phenotype (coiled, jerky-Unc or paralyzed): 98.3333%
[1]; 60uM
  atypical locomotion (number of animals): 1 and 4 and 8 and 5 and 3
  coiled (number of animals): 12 and 6 and 4 and 7
  no phene (number of animals): 0
  paralyzed (number of animals): 7 and 10 and 8 and 9 and 11
[1]
  EC50: 5100 ± 500 nM
[2]; [6]
  Ki: 1.85e-06 M
[2]; [7]
  Ki: 1.68e-06 M
[2]; [8]
  Ki: 1.76e-06 M
[2]; [9]
  Ki: 1.76e-06 M
[3]; 10 µM
  % effect (motility), DIROIM L4: 30%
[3]; 50 µM
  % effect (motility), DIROIM L4: 25%
[4]; 0.016 µM
  % effect (motility), DIROIM MF: 0%
[4]; 0.08 µM
  % effect (motility), DIROIM MF: 0%
[4]; 0.4 µM
  % effect (motility), DIROIM MF: 0%
[4]; 2 µM
  % effect (motility), DIROIM MF: 0%
[4]; 10 µM
  % effect (motility), DIROIM MF: 0%
[5]
  EC50: > 60000 nM
[5]; conc 3.75
  mean % any phene: 0%
  rep 1 atypical locomotion: 0
  rep 1 coiled: 0
  rep 1 no phene: 20
  rep 1 paralyzed: 0
  rep 2 atypical locomotion: 0
  rep 2 coiled: 0
  rep 2 no phene: 20
  rep 2 paralyzed: 0
  rep 3 atypical locomotion: 0
  rep 3 coiled: 0
  rep 3 no phene: 20
  rep 3 paralyzed: 0
[5]; conc 15
  mean % any phene: 0%
  rep 1 atypical locomotion: 0
  rep 1 coiled: 0
  rep 1 no phene: 20
  rep 1 paralyzed: 0
  rep 2 atypical locomotion: 0
  rep 2 coiled: 0
  rep 2 no phene: 20
  rep 2 paralyzed: 0
  rep 3 atypical locomotion: 0
  rep 3 coiled: 0
  rep 3 no phene: 20
  rep 3 paralyzed: 0
[5]; conc 60
  mean % any phene: 5.833%
  rep 1 atypical locomotion: 4 and 2
  rep 1 coiled: 0
  rep 1 no phene: 16 and 18
  rep 1 paralyzed: 0
  rep 2 atypical locomotion: 0
  rep 2 no phene: 19 and 20
  rep 2 paralyzed: 0
  rep 3 atypical locomotion: 0
  rep 3 coiled: 0
  rep 3 no phene: 20
  rep 3 paralyzed: 0

## c1ccc(N2CCN(CC3CCCC3)CC2)cc1 [Nemacol-62]
[1]; 3.75uM
  atypical locomotion (number of animals): 0 and 2
  coiled (number of animals): 0 and 1
  no phene (number of animals): 20 and 17 and 18
  paralyzed (number of animals): 0
  any phene: mean % fraction of young adults exhibiting any phenotype (coiled, jerky-Unc or paralyzed): 4.167%
[1]; 15uM
  atypical locomotion (number of animals): 13 and 10 and 6 and 17
  coiled (number of animals): 0 and 1 and 4 and 3
  no phene (number of animals): 5 and 8 and 13 and 10 and 0
  paralyzed (number of animals): 2 and 0 and 4
[1]; 60uM
  atypical locomotion (number of animals): 0 and 4 and 2 and 1
  coiled (number of animals): 12 and 8 and 15 and 17 and 7 and 5
  no phene (number of animals): 0
  paralyzed (number of animals): 8 and 3 and 2 and 9 and 14
[1]
  EC50: 11200 ± 4400 nM
[2]; [6]
  Ki: 2.34e-06 M
[2]; [7]
  Ki: 3.34e-06 M
[2]; [8]
  Ki: 2.84e-06 M
[2]; [9]
  Ki: 2.84e-06 M
[3]; 10 µM
  % effect (motility), DIROIM L4: 5%
[3]; 50 µM
  % effect (motility), DIROIM L4: 11%
[4]; 0.016 µM
  % effect (motility), DIROIM MF: 0%
[4]; 0.08 µM
  % effect (motility), DIROIM MF: 0%
[4]; 0.4 µM
  % effect (motility), DIROIM MF: 0%
[4]; 2 µM
  % effect (motility), DIROIM MF: 0%
[4]; 10 µM
  % effect (motility), DIROIM MF: 0%
[5]
  EC50: 35200 ± 7500 nM
[5]; conc 3.75
  mean % any phene: 0%
  rep 1 atypical locomotion: 0
  rep 1 coiled: 0
  rep 1 no phene: 20
  rep 1 paralyzed: 0
  rep 2 atypical locomotion: 0
  rep 2 coiled: 0
  rep 2 no phene: 20
  rep 2 paralyzed: 0
  rep 3 atypical locomotion: 0
  rep 3 coiled: 0
  rep 3 no phene: 20
  rep 3 paralyzed: 0
[5]; conc 15
  mean % any phene: 3.333%
  rep 1 coiled: 0
  rep 1 no phene: 20 and 19
  rep 1 paralyzed: 0
  rep 2 atypical locomotion: 2 and 1
  rep 2 coiled: 0
  rep 2 no phene: 18 and 19
  rep 2 paralyzed: 0
  rep 3 atypical locomotion: 0
  rep 3 coiled: 0
  rep 3 no phene: 20
  rep 3 paralyzed: 0
[5]; conc 60
  mean % any phene: 89.1667%
  rep 1 atypical locomotion: 5 and 6
  rep 1 paralyzed: 11 and 9
  rep 2 atypical locomotion: 14 and 15
  rep 2 coiled: 2 and 3
  rep 2 no phene: 0
  rep 2 paralyzed: 4 and 2
  rep 3 atypical locomotion: 15 and 13
  rep 3 no phene: 5 and 3
